The source of these data is patent US11072626B2, “Small molecule inhibitors of Galectin-3” (BRISTOL-MYERS SQUIBB COMPANY, priority 2017, dated 2021).

pIC50: −log10 of the molar value.

A word on the pIC50: it is the negative decadic logarithm of the IC50, by convention in mol/L.

His-tagged recombinant human Gal-3 (hGal-3), sequence (P17931 whole entry): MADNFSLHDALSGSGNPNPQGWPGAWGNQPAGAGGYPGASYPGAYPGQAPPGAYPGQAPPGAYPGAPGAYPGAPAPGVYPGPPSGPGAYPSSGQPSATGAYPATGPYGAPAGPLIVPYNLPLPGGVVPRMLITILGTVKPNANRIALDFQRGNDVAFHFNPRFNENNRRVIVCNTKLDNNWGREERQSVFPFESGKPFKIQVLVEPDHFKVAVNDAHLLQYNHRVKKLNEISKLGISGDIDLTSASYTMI

This test concerns the target His-tagged recombinant human Gal-3 (hGal-3) (Homo sapiens (Human), UniProt P17931). In words: Gal-3 HTRF assay (hGal-3 / B-ASF). It counts as binding. The conditions noted are these: 15 nM hGal-3, 15 nM B-ASF, three replicates, room temperature, read-out: hGal3 IC50. As for the experimental part: ASSAY BUFFER Composition: 25 mM HEPES, 100 mM NaCl, 0.005% Tween 20, 0.05% BSA prepared in sterile water (all reagents from Sigma)
Positive Control: 100% DMSO (1 μl)+His-tagged hGal-3 (20 μL)+B-ASF (20 μl)+Anti-His Terbium Antibody (5 μl)+Strep d2 Antibody (5 μl).
Negative Control: 100% DMSO (1 μl)+His-tagged hGal-3 (20μL)+Anti His Terbium Antibody (5 μl)+Strep d2 Aantibody (5 μl).
PROTOCOL: The Gal-3 assays were performed in 384 white Opti plates in three replicates at room temperature with gentle shaking at 250-300 rpm From the original stocks, […] working stock concentrations of His-tagged recombinant human Gal-3 (hGal-3) and that of B-ASF were prepared. From the working stock, 20 μl of hGal-3 (15 nM) and 20 μl B-ASF (15 nM) were added to the plates. In Negative Control, only hGal-3 was added. A concentration range of 50× working stocks were prepared for the compounds in 100% DMSO. Aliquots of 1 uL of the compounds were added to the wells and pre-incubated with 20 μl hGal-3 per well for 30 minutes Then 20 μl B-ASF were added and incubated for another 1 hour. To detect the signal, 5 μ(final conc. of 1.0 nM) terbium labelled Anti-His antibody was added and incubated for 30 min followed by adding 5 μ(final conc. of 20 nM) Streptavidin d2 and incubation for another 1 hour. The assay signal was detected using HTRF screen protocol (Excitation wavelength=340 nm, emission wavelength=615 nm/665 nm) on Envision 2104 Multilabel Reader. Data analysed using Toolset and Curve Master. Results are reported in the experimental section (IC50 in μM).
Background: TR-FRET usually uses a lanthanide donor and a delayed reading to cut background.
On to `O=C(O)CO[C@@H]1[C@@H](n2cc(-c3cc(F)c(F)c(F)c3)nn2)[C@@H](O)[C@@H](CO)O[C@@H]1[S+]([O-])c1ccc(Cl)c(Cl)c1` (single isomer, unassigned) [18 (isomer-1)], for which the negative-log IC50 (pIC50) is 7.77.

As to `O=C(O)CO[C@@H]1[C@@H](n2cc(-c3cc(F)c(F)c(F)c3)nn2)[C@@H](O)[C@@H](CO)O[C@@H]1[S+]([O-])c1ccc(Cl)c(Cl)c1` (single isomer, unassigned) [18 (isomer-2)], the negative-log IC50 (pIC50) was 7.00.

Take `CO[C@@H]1[C@@H](n2cc(-c3cc(F)c(F)c(F)c3)nn2)[C@@H](O)[C@@H](CO)O[C@@H]1[S+]([O-])c1ccc(Cl)c(Cl)c1` (single isomer, unassigned) [Example 2 (isomer-1)]: the pIC50 is 7.54. Take `CO[C@@H]1[C@@H](n2cc(-c3cc(F)c(F)c(F)c3)nn2)[C@@H](O)[C@@H](CO)O[C@@H]1[S+]([O-])c1ccc(Cl)c(Cl)c1` (single isomer, unassigned) [Example 2 (isomer-2)]: the pIC50 was 6.81. `CCO[C@@H]1[C@@H](n2cc(-c3cc(F)c(F)c(F)c3)nn2)[C@@H](O)[C@@H](CO)O[C@@H]1[S+]([O-])c1ccc(Cl)c(Cl)c1` (single isomer, unassigned) [Example 9 (isomer-1)]: the pIC50 was 7.00. For `CCO[C@@H]1[C@@H](n2cc(-c3cc(F)c(F)c(F)c3)nn2)[C@@H](O)[C@@H](CO)O[C@@H]1[S+]([O-])c1ccc(Cl)c(Cl)c1` (single isomer, unassigned) [Example 9 (isomer-2)], the pIC50 is 6.47. Next, `CC(O[C@@H]1[C@@H](n2cc(-c3cc(F)c(F)c(F)c3)nn2)[C@@H](O)[C@@H](CO)O[C@@H]1Sc1ccc(Cl)c(Cl)c1)C(=O)O` (single isomer, unassigned) [Example 38 (isomer-1)]: 6.82; `CC(O[C@@H]1[C@@H](n2cc(-c3cc(F)c(F)c(F)c3)nn2)[C@@H](O)[C@@H](CO)O[C@@H]1Sc1ccc(Cl)c(Cl)c1)C(=O)O` (single isomer, unassigned) [Example 38 (isomer-2)]: 7.40; `CC(O[C@@H]1[C@@H](n2cc(-c3cc(F)c(F)c(F)c3)nn2)[C@@H](O)[C@@H](CO)O[C@@H]1S(=O)(=O)c1ccc(Cl)c(Cl)c1)C(=O)O` (single isomer, unassigned) [Example 39 (isomer-1)]: 6.44. On to `CC(O[C@@H]1[C@@H](n2cc(-c3cc(F)c(F)c(F)c3)nn2)[C@@H](O)[C@@H](CO)O[C@@H]1S(=O)(=O)c1ccc(Cl)c(Cl)c1)C(=O)O` (single isomer, unassigned) [Example 39 (isomer-2)], for which the pIC50 was 7.70. Consider `OC[C@H]1O[C@H](Sc2ccc(Cl)c(Cl)c2)[C@H](F)[C@@H](n2cc(-c3cc(F)c(F)c(F)c3)nn2)[C@H]1O` (single isomer, unassigned) [Example 62 (isomer-1)], for which the pIC50 was 5.66. Take `OC[C@H]1O[C@@H](Sc2ccc(Cl)c(Cl)c2)[C@H](F)[C@@H](n2cc(-c3cc(F)c(F)c(F)c3)nn2)[C@H]1O` (single isomer, unassigned) [Example 62 (isomer-2)]: the pIC50 was 5.00.

As for `CO[C@@H]1[C@@H](n2cc(-c3cc(F)c(F)c(F)c3)nn2)[C@@H](O)[C@@H](CO)O[C@@H]1Sc1ccc(Cl)c(Cl)c1` [Example 1, (2R,3R,4S,5R,6R)-6-((3,4-dichlorophenyl)thio)-2-(hydroxymethyl)-5-methoxy-4-(4-(3,4,5-trifluorophenyl)-1H-1,2,3-triazol-1-yl)tetrahydro-2H-pyran-3-ol], the pIC50 is 6.15. Consider `CO[C@@H]1[C@@H](n2cc(-c3cc(F)c(F)c(F)c3)nn2)[C@@H](O)[C@@H](CO)O[C@@H]1S(=O)(=O)c1ccc(Cl)c(Cl)c1` [Example 3, (2R,3R,4S,5R,6R)-6-((3,4-dichlorophenyl)sulfonyl)-2-(hydroxymethyl)-5-methoxy-4-(4-(3,4,5-trifluorophenyl)-1H-1,2,3-triazol-1-yl)tetrahydro-2H-pyran-3-ol], for which the pIC50 is 6.95. For `CCO[C@@H]1[C@@H](n2cc(-c3cc(F)c(F)c(F)c3)nn2)[C@@H](O)[C@@H](CO)O[C@@H]1Sc1ccc(Cl)c(Cl)c1` [Example 4, (2R,3R,4S,5R,6R)-6-((3,4-dichlorophenyl)thio)-5-ethoxy-2-(hydroxymethyl)-4-(4-(3,4,5-trifluorophenyl)-1H-1,2,3-triazol-1-yl)tetrahydro-2H-pyran-3-ol], the pIC50 was 5.98.

For `CCO[C@@H]1[C@@H](n2cc(-c3cc(F)c(F)c(F)c3)nn2)[C@@H](O)[C@@H](CO)O[C@@H]1S(=O)(=O)c1ccc(Cl)c(Cl)c1` [Example 10, (2R,3R,4S,5R,6R)-6-((3,4-dichlorophenyl)sulfonyl)-5-ethoxy-2-(hydroxymethyl)-4-(4-(3,4,5-trifluorophenyl)-1H-1,2,3-triazol-1-yl)tetrahydro-2H-pyran-3-ol], the pIC50 is 6.70.

As to `COCCO[C@@H]1[C@@H](n2cc(-c3cc(F)c(F)c(F)c3)nn2)[C@@H](O)[C@@H](CO)O[C@@H]1[S@+]([O-])c1ccc(Cl)c(Cl)c1` [Example 11, (2R,3R,4S,5R,6R)-6-((R)-(3,4-dichlorophenyl)sulfinyl)-2-(hydroxymethyl)-5-(2-methoxyethoxy)-4-(4-(3,4,5-trifluorophenyl)-1H-1,2,3-triazol-1-yl)tetrahydro-2H-pyran-3-ol], the pIC50 was 7.25.

For the compound `COCCO[C@@H]1[C@@H](n2cc(-c3cc(F)c(F)c(F)c3)nn2)[C@@H](O)[C@@H](CO)O[C@@H]1S(=O)(=O)c1ccc(Cl)c(Cl)c1` [Example 12, (2R,3R,4S,5R,6R)-6-((3,4-dichlorophenyl)sulfonyl)-2-(hydroxymethyl)-5-(2-methoxyethoxy)-4-(4-(3,4,5-trifluorophenyl)-1H-1,2,3-triazol-1-yl)tetrahydro-2H-pyran-3-ol], the pIC50 was 6.89. As for `[O-][N+]1(CCO[C@@H]2[C@@H](n3cc(-c4cc(F)c(F)c(F)c4)nn3)[C@@H](O)[C@@H](CO)O[C@@H]2Sc2ccc(Cl)c(Cl)c2)CCOCC1` [Example 13, 4-(2-(((2R,3R,4S,5R,6R)-2-((3,4-dichlorophenyl)thio)-5-hydroxy-6-(hydroxymethyl)-4-(4-(3,4,5-trifluorophenyl)-1H-1,2,3-triazol-1-yl)tetrahydro-2H-pyran-3-yl)oxy)ethyl)morpholine 4-oxide], the pIC50 was 7.30. As for `CCOC(=O)CO[C@@H]1[C@@H](n2cc(-c3cc(F)c(F)c(F)c3)nn2)[C@@H](O)[C@@H](CO)O[C@@H]1Sc1ccc(Cl)c(Cl)c1` [Example 14, ethyl 2-(((2R,3R,4S,5R,6R)-2-((3,4-dichlorophenyl)thio)-5-hydroxy-6-(hydroxymethyl)-4-(4-(3,4,5-trifluorophenyl)-1H-1,2,3-triazol-1-yl)tetrahydro-2H-pyran-3-yl)oxy)acetate], the figure is 6.42. As for `N#CCO[C@@H]1[C@@H](n2cc(-c3cc(F)c(F)c(F)c3)nn2)[C@@H](O)[C@@H](CO)O[C@@H]1Sc1ccc(Cl)c(Cl)c1` [Example 15, 2-(((2R,3R,4S,5R,6R)-2-((3,4-dichlorophenyl)thio)-5-hydroxy-6-(hydroxymethyl)-4-(4-(3,4,5-trifluorophenyl)-1H-1,2,3-triazol-1-yl)tetrahydro-2H-pyran-3-yl)oxy)acetonitrile], the pIC50 is 6.64. For `CCOC(=O)CO[C@@H]1[C@@H](n2cc(-c3cc(F)c(F)c(F)c3)nn2)[C@@H](O)[C@@H](CO)O[C@@H]1[S@@+]([O-])c1ccc(Cl)c(Cl)c1` [Example 16, ethyl 2-(((2R,3R,4S,5R,6R)-2-((S)-(3,4-dichlorophenyl)sulfinyl)-5-hydroxy-6-(hydroxymethyl)-4-(4-(3,4,5-trifluorophenyl)-1H-1,2,3-triazol-1-yl)tetrahydro-2H-pyran-3-yl)oxy)acetate], the pIC50 is 7.60. On to `CCOC(=O)CO[C@@H]1[C@@H](n2cc(-c3cc(F)c(F)c(F)c3)nn2)[C@@H](O)[C@@H](CO)O[C@@H]1S(=O)(=O)c1ccc(Cl)c(Cl)c1` [Example 17, ethyl 2-(((2R,3R,4S,5R,6R)-2-((3,4-dichlorophenyl)sulfonyl)-5-hydroxy-6-(hydroxymethyl)-4-(4-(3,4,5-trifluorophenyl)-1H-1,2,3-triazol-1-yl)tetrahydro-2H-pyran-3-yl)oxy)acetate], for which the negative-log IC50 (pIC50) is 6.72. As to `O=C(O)CO[C@@H]1[C@@H](n2cc(-c3cc(F)c(F)c(F)c3)nn2)[C@@H](O)[C@@H](CO)O[C@@H]1S(=O)(=O)c1ccc(Cl)c(Cl)c1` [Example 19, 2-(((2R,3R,4S,5R,6R)-2-((3,4-dichlorophenyl)sulfonyl)-5-hydroxy-6-(hydroxymethyl)-4-(4-(3,4,5-trifluorophenyl)-1H-1,2,3-triazol-1-yl)tetrahydro-2H-pyran-3-yl)oxy)acetic acid], the negative-log IC50 (pIC50) was 7.22.
